Measurements taken from publication PMC12040169 (PLOS Biology, 2025).
“And” between values parts separate entries of the source, which are not always exact repeats. Equal values may be shown once.

Key:
[1] = test system: HeLa; conditions: bulk resorufin, single well, 28.5 h, 10 µM, Bulk resorufin fluorescence
[2] = in vitro; conditions: human, hela cells, % viability

Structure (SMILES)	% viability [1]	viability at 28.5 h, 10 µM [2] [%]
C[C@@H]1CN2CCCC2CN1Cc1cc(F)ccc1F (stereo partly drawn) [CBK285444]	94.9%	104
C[C@@H]1CN2CCCC2CN1Cc1ccc(F)c(F)c1 (stereo partly drawn) [CBK285445]	105%	99.5
CCn1ncc(CN2C[C@@H]3CCCN3C[C@@H]2CCSC)c1C [CBK285446]	110%	109
Cc1cc(CN2CC3CCCN3C[C@H]2C)oc1C (stereo partly drawn) [CBK285449]	103%	96.9
CCn1cc(CN2C[C@@H]3CCCN3C[C@H]2CCSC)c(C)n1 [CBK285460]	99.1%	96.3
COc1ccc(CC(=O)N2CCN(Cc3ccco3)C[C@H]2C)cc1 [CBK285483]	104%	96
O=C(NC1CC1)[C@H]1C=CCN1S(=O)(=O)c1cccc(F)c1 [CBK285485]	98.9%	111
O=C(CN1C(=O)[C@@H]2CCCN2c2ncccc21)NCc1ccccc1 [CBK286203]	117%	115
O=C(CN1C(=O)[C@@H]2CCCN2C(=O)c2ccccc21)N1CCOCC1 [CBK286401]	103%	83.9
Cc1cc2ncn(C3CC(=O)N(c4ccc(C(=O)O)cc4)C3=O)c2cc1C (stereo not drawn) [CBK286586]	92.4%	89.4
O=C(O)c1cc(-c2ccccc2)c2c(=O)[nH][nH]c2n1 [CBK286631]	102% and 88.2%	105
O=C(O)c1cccc2c1C(=O)N(Cc1ccccc1)C2 [CBK286872]	89.1%	91
NS(=O)(=O)c1ccc2nc(NC(=O)c3ccc(Cl)s3)sc2c1 [CBK287320]	89.6%	108
Cc1ccc(-c2csc3c(=O)[nH]c(N4CCC5(CC4)OCCO5)nc23)cc1 [CBK288034]	92.2%	83.9
NCCc1c(C23CC4CC(CC(C4)C2)C3)[nH][nH]c1=O [CBK288081]	106%	86.5
O=C(CC1C(=O)NC(=O)N1Cc1ccccc1)NCc1ccccc1 (stereo not drawn) [CBK288083]	94.6%	87.8
Cc1ccc(Nc2cc(N3CCC(C(=O)O)CC3)ncn2)cc1 [CBK288121]	91.3%	104
CN1CCc2[nH]c(=S)c(C#N)c(-c3ccccc3)c2C1 [CBK288354]	87.1%	96.5
